Legend:
[1] = In vitro proton relaxivity in human serum; format: physicochemical; conditions: 60 MHz, 40° C.
Method: Both the longitudinal and transverse relaxation times were measured in human serum (BioreclamationIVT, Cat #HMSRM-M) to reflect the efficiency of the Mn(II) based chelates in an environment close to physiological. The relaxivity assessment was carried out at a concentration ranging from 5 to 0 mM Mn(II), at 40° C. using a Minispec Mq benchtop NMR relaxometer (Bruker Instruments, Rheinstetten, Germany) operating at 60 MHz (1.4 T) with an inversion recovery pulse sequence. The longitudinal and transverse relaxivities of the complexes (e.g., r1 and r2 respectively) were calculated by plotting the reciprocal of their relaxation time versus the manganese concentration as determined via ICP-MS (Spectro Arcos FHS12, S/N 10003910 or S/N 12006120) for each Mn(II) based chelates. The dependence of T1 by B0 (i.e., magnetic field) applied was assessed via the acquisition of ^1H Nuclear Magnetic Relaxation Dispersion (NMRD) profiles. A dedicated Stelar SMARTracer Fast Field Cycling relaxometer (0.01-10 MHz) and a Bruker WP80 NMR electromagnet adapted to variable field measurements (20-80 MHz) and controlled by a SMARTracer PC-NMR console was used to record the ^1H NMRD profiles over an extended range of Larmor Frequencies (from 0.01 to 80 MHz). The temperature was monitored by a VTC91 temperature control unit and maintained by a gas flow. The temperature was determined by previous calibration with a Pt resistance temperature probe. High field relaxivities were measured on a Bruker AVANCE NMR spectrometer at 400 MHz. A total of 25 data points per NMRD profile were recorded at each temperature, pH 6.9 and with a manganese concentration in the samples of 6.99, 6.78 and 4.45 mM for the prior art Mn Chelate, Mn Chelate 4 and Mn Chelate 3, respectively. The concentration of Mn(II) in all samples was verified by Bulk Magnetic Susceptibility (BMS) measurements. Relaxivity was computed by subtracting the relaxation rate of the medium (distilled water) from the relaxation rate of the Mn(II) complex solution at each field strength and dividing the difference by the manganese concentration verified by BMS measurements.
The linear fit (R2>0.99 for all compounds examined) of 1/T1 and 1/T2 as a function of Mn concentration generated the r1 or r2 values reported in Table 4 for human serum.

[2] = Water solubility of Mn(II) based chelates; format: physicochemical; conditions: thermodynamic from solid, 25° C.
Method: The solubility of Mn(II) based chelates was confirmed by dissolving purified Mn(II) based chelates ( 99% purity) in a prescribed volume of solvent (Millipore water 18.2 MegaOhm from a Millipore BioCell Benchtop unit) to provide a solution of given volume. Solutions were visually inspected for homogeneity and filtered through a 0.45 um PTFE filter membrane if necessary. The assessment was carried out at 25° C. Final sample concentrations were confirmed by determination of final Mn(II) concentration via ICP-MS (Spectro Arcos FHS[…] 10003910 or S/N 12006120).

SMILES	r1 (longitudinal relaxivity) [1] [mM⁻¹ s⁻¹]	solubility [2] [mM]
CN1CCN2Cc3cccc(n3)CN(CC1)C(CCC(=O)NC[C@H](O)[C@@H](O)[C@H](O)[C@H](O)CO)C(=O)[O][Mn][O]C(=O)C2CCC(=O)NC[C@H](O)[C@@H](O)[C@H](O)[C@H](O)CO (stereo partly shown) [Mn Chelate 5]	5.2	> 500
CN1CCN2Cc3cccc(n3)CN(CC1)C(CC(=O)NC[C@H](O)[C@@H](O)[C@H](O)[C@H](O)CO)C(=O)[O][Mn][O]C(=O)C2CC(=O)NC[C@H](O)[C@@H](O)[C@H](O)[C@H](O)CO (stereo partly shown) [Mn Chelate 5a]	3.7	> 500
CN1CCN2Cc3cccc(n3)CN(CC1)C(CCC(=O)Nc1cc(C(=O)NCC(O)CO)cc(C(=O)NCC(O)CO)c1)C(=O)[O][Mn][O]C(=O)C2CCC(=O)Nc1cc(C(=O)NCC(O)CO)cc(C(=O)NCC(O)CO)c1 (stereo not shown) [Mn Chelate 7]	6.0	> 500
CN1CCN2Cc3cccc(n3)CN(CC1)C(CCC(=O)N(CCO)CCO)C(=O)[O][Mn][O]C(=O)C2CCC(=O)N(CCO)CCO (stereo not shown) [Mn Chelate 9]	4.3	> 500
CN1CCN2Cc3cccc(n3)CN(CC1)C(CCC(=O)NCC(O)CO)C(=O)[O][Mn][O]C(=O)C2CCC(=O)NCC(O)CO (stereo not shown) [Mn Chelate 10]	4.3	> 500
CN1CCN2Cc3cccc(n3)CN(CC1)C(CC(=O)NCC(O)CO)C(=O)[O][Mn][O]C(=O)C2CC(=O)NCC(O)CO (stereo not shown) [Mn Chelate 10a]	3.8	> 500
CN1CCN2Cc3cccc(n3)CN(CC1)C(CCC(=O)NC(CO)(CO)CO)C(=O)[O][Mn][O]C(=O)C2CCC(=O)NC(CO)(CO)CO (stereo not shown) [Mn Chelate 11]	4.6	–
